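48-hour exposure; five concentrations; linearly interpolated endpoints. Abbreviation: GI50, concentration required for 50% inhibition of growth. TGI denotes the concentration required for complete inhibition of growth.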
Experiments:
Test in all cases: NCI tumour cell line growth inhibition, 48 h
M14 melanoma = test system: M14 melanoma
SK-OV-3 ovarian = test system: SK-OV-3 ovarian
UACC-62 melanoma = test system: UACC-62 melanoma
SNB-19 CNS = test system: SNB-19 CNS
SF-539 CNS = test system: SF-539 CNS
MDA-MB-231 breast = test system: MDA-MB-231 breast
NCI/ADR-RES ovarian = test system: NCI/ADR-RES ovarian
HCC-2998 colon = test system: HCC-2998 colon
IGROV1 ovarian = test system: IGROV1 ovarian
NCI-H522 lung = test system: NCI-H522 lung
SK-MEL-28 melanoma = test system: SK-MEL-28 melanoma
MDA-MB-435 = test system: MDA-MB-435
HS 578T breast = test system: HS 578T breast
SN12C renal = test system: SN12C renal
NCI-H23 lung = test system: NCI-H23 lung
SNB-75 CNS = test system: SNB-75 CNS
HOP-92 NSCLC = test system: HOP-92 NSCLC
SW-620 colon = test system: SW-620 colon
UACC-257 melanoma = test system: UACC-257 melanoma
OVCAR-5 ovarian = test system: OVCAR-5 ovarian
A549 NSCLC = test system: A549 NSCLC
LOX IMVI melanoma = test system: LOX IMVI melanoma
SF-268 CNS = test system: SF-268 CNS
TK-10 renal = test system: TK-10 renal
NCI-H226 lung = test system: NCI-H226 lung
HT29 colon = test system: HT29 colon
RPMI-8226 leukemia = test system: RPMI-8226 leukemia
SF-295 CNS = test system: SF-295 CNS
EKVX NSCLC = test system: EKVX NSCLC
SR leukemia = test system: SR leukemia
MCF7 breast = test system: MCF7 breast
DU-145 prostate = test system: DU-145 prostate
MOLT-4 leukemia = test system: MOLT-4 leukemia
786-0 renal = test system: 786-0 renal
CAKI-1 renal = test system: CAKI-1 renal
U251 CNS = test system: U251 CNS
A498 renal = test system: A498 renal
CCRF-CEM leukemia = test system: CCRF-CEM leukemia
COLO 205 colon = test system: COLO 205 colon
UO-31 renal = test system: UO-31 renal
OVCAR-4 ovarian = test system: OVCAR-4 ovarian
HCT-116 colon = test system: HCT-116 colon
KM12 colon = test system: KM12 colon
T-47D breast = test system: T-47D breast
ACHN renal = test system: ACHN renal
K-562 leukemia = test system: K-562 leukemia
OVCAR-8 ovarian = test system: OVCAR-8 ovarian
HCT-15 colon = test system: HCT-15 colon
RXF 393 renal = test system: RXF 393 renal
BT-549 breast = test system: BT-549 breast
HOP-62 NSCLC = test system: HOP-62 NSCLC
SK-MEL-2 melanoma = test system: SK-MEL-2 melanoma
NCI-H460 lung = test system: NCI-H460 lung
SK-MEL-5 melanoma = test system: SK-MEL-5 melanoma

Structure (SMILES): Nc1ncnc2c1ncn2CC(CO)CC(c1ccccc1)P(=O)(O)O (stereo not drawn)
- TGI (M14 melanoma): 1640 nM

Structure (SMILES): CN(C)c1nc(NN)c2c(-c3ccccc3)c(-c3ccccc3)oc2n1
- TGI (SK-OV-3 ovarian): > 100000 nM
- TGI (UACC-62 melanoma): > 100000 nM
- TGI (SNB-19 CNS): > 100000 nM
- TGI (SF-539 CNS): > 100000 nM
- TGI (MDA-MB-231 breast): > 100000 nM
- TGI (NCI/ADR-RES ovarian): > 100000 nM
- TGI (HCC-2998 colon): > 100000 nM
- TGI (IGROV1 ovarian): > 100000 nM
- TGI (NCI-H522 lung): > 100000 nM
- TGI (SK-MEL-28 melanoma): > 100000 nM
- TGI (MDA-MB-435): > 100000 nM
- TGI (HS 578T breast): > 100000 nM
- TGI (SN12C renal): > 100000 nM
- TGI (NCI-H23 lung): > 100000 nM
- TGI (SNB-75 CNS): > 100000 nM
- TGI (HOP-92 NSCLC): > 100000 nM
- TGI (SW-620 colon): > 100000 nM
- TGI (M14 melanoma): > 100000 nM
- TGI (UACC-257 melanoma): > 100000 nM
- TGI (OVCAR-5 ovarian): > 100000 nM
- TGI (A549 NSCLC): > 100000 nM
- TGI (LOX IMVI melanoma): > 100000 nM
- TGI (SF-268 CNS): > 100000 nM
- TGI (TK-10 renal): > 100000 nM
- TGI (NCI-H226 lung): > 100000 nM
- TGI (HT29 colon): > 100000 nM
- TGI (RPMI-8226 leukemia): > 100000 nM
- TGI (SF-295 CNS): > 100000 nM
- TGI (EKVX NSCLC): > 100000 nM
- TGI (SR leukemia): > 100000 nM
- TGI (MCF7 breast): > 100000 nM
- TGI (DU-145 prostate): > 100000 nM
- TGI (MOLT-4 leukemia): > 100000 nM
- TGI (786-0 renal): > 100000 nM
- TGI (CAKI-1 renal): > 100000 nM
- TGI (U251 CNS): > 100000 nM
- TGI (A498 renal): > 100000 nM
- TGI (CCRF-CEM leukemia): > 100000 nM
- TGI (COLO 205 colon): > 100000 nM
- TGI (UO-31 renal): > 100000 nM
- TGI (OVCAR-4 ovarian): > 100000 nM
- TGI (HCT-116 colon): > 100000 nM
- TGI (KM12 colon): > 100000 nM
- TGI (T-47D breast): > 100000 nM
- TGI (ACHN renal): > 100000 nM
- TGI (K-562 leukemia): > 100000 nM
- TGI (OVCAR-8 ovarian): > 100000 nM
- TGI (HCT-15 colon): > 100000 nM
- TGI (RXF 393 renal): > 100000 nM

Structure (SMILES): COc1cc2c3c(n(CCCNCCCNCCCn4c5c(c6ccccc6c4=O)C(=O)c4ccccc4-5)c(=O)c2cc1OC)-c1cc2c(cc1C3=O)OCO2
- GI50 (SF-539 CNS): < 10 nM
- GI50 (NCI/ADR-RES ovarian): > 40500 nM
- TGI (NCI/ADR-RES ovarian): > 67100 nM
- GI50 (IGROV1 ovarian): < 10 nM
- TGI (IGROV1 ovarian): > 100000 nM
- GI50 (BT-549 breast): < 10 nM
- TGI (BT-549 breast): 1100 nM
- GI50 (MDA-MB-435): 154 nM
- TGI (MDA-MB-435): 1680 nM
- GI50 (NCI-H23 lung): < 10 nM
- TGI (NCI-H23 lung): 82.6 nM
- GI50 (SW-620 colon): < 10 nM
- TGI (SW-620 colon): 197 nM
- GI50 (M14 melanoma): 987 nM
- TGI (M14 melanoma): 2150 nM
- GI50 (HOP-62 NSCLC): < 43.4 nM
- TGI (HOP-62 NSCLC): 695 nM
- GI50 (A549 NSCLC): 20.1 nM
- TGI (A549 NSCLC): 2300 nM
- GI50 (LOX IMVI melanoma): < 10 nM
- TGI (LOX IMVI melanoma): < 36.1 nM
- GI50 (SF-268 CNS): < 10 nM
- TGI (SF-268 CNS): 21.7 nM
- GI50 (EKVX NSCLC): < 10 nM
- TGI (EKVX NSCLC): 578 nM
- GI50 (DU-145 prostate): < 10 nM
- TGI (DU-145 prostate): 213 nM
- GI50 (MOLT-4 leukemia): < 10 nM
- TGI (MOLT-4 leukemia): > 100000 nM
- TGI (786-0 renal): 1070 nM
- GI50 (CAKI-1 renal): 158 nM
- TGI (CAKI-1 renal): 2530 nM
- GI50 (U251 CNS): < 10 nM
- TGI (U251 CNS): 20.5 nM
- GI50 (SK-MEL-2 melanoma): 640 nM
- TGI (SK-MEL-2 melanoma): 3100 nM
- GI50 (UO-31 renal): 27.2 nM
- TGI (UO-31 renal): 1690 nM
- GI50 (NCI-H460 lung): < 10 nM
- TGI (NCI-H460 lung): 11.3 nM
- GI50 (HCT-116 colon): < 15 nM
- TGI (HCT-116 colon): 263 nM
- GI50 (ACHN renal): < 10 nM
- TGI (ACHN renal): < 21.9 nM
- GI50 (K-562 leukemia): 40.3 nM
- TGI (K-562 leukemia): > 100000 nM
- GI50 (SK-MEL-5 melanoma): 29.8 nM
- TGI (SK-MEL-5 melanoma): 634 nM
